Data taken from patent publication US12280037B2, “Method and pharmaceutical composition for treating or preventing trichomoniasis and uses thereof” (EVOFEM BIOSCIENCES, INC., priority 2020, dated 2025).
In brackets after ≈: the same amount, converted by molar mass. Several values for one entry are separate records, joined by “and”; a condition that tells them apart may be missing. Identical values can stand only once.

Columns and labels:
[1] = Thorough QT (TQT) study: QTc, cardiac conduction and adverse events; conditions: Moxifloxacin 400 mg oral (control)
Method: A TQT study was also conducted. The TQT study was a double-blind, randomized, placebo-controlled, 4-period, single-dose, crossover design in 52 healthy male and female subjects.

[2] = Phase I study of SYM-1219 4 grams or 6 grams: secnidazole plasma concentrations; format: in vivo, human
Method: Additionally, a Phase I, randomized, placebo-controlled, single-blind, two-group study, which assessed the safety, tolerability, and PK of single oral doses of SYM-1219 granules containing either 4 grams or 6 grams of secnidazole administered in approximately 8 ounces of applesauce to 16 healthy male and female subjects, was conducted to determine the supratherapeutic dose for a potential Thorough QT (“TQT”) study. Subjects were randomized 3:1, such that a total of 12 subjects received secnidazole and 4 subjects received placebo. 3 male and 3 female subjects were treated at each secnidazole dose level (i.e., 4 grams or 6 grams). Blood samples for PK assessments were collected at the following timepoints: 30 minutes prior to dosing and 3 hours, 6 hours, 8 hours and 24 hours post dose. Plasma concentrations were summarized by timepoint using descriptive statistics; noncompartmental PK parameters were not calculated.
Eligible subject were admitted to the clinical site on Day −1 and were discharged following a safety evaluation on Day 2; the in-house period was approximately 2 days. Randomization occurred after the assessments of Day −1 determined that subjects remained eligible for the study. All subject were asked to return on Day 7+/2 days for a final study visit. The maximum study duration was approximately 4 weeks to 5 weeks (including the study screening period).
Group A received a single oral dose of SYM-1219 microgranules, containing 4 grams of secnidazole (N=6) (2 packets of SYM-1219 microgranules, 2 grams of secnidazole/packet), or a placebo (N=2) (2 packets of placebo) in approximately 8 oz. of applesauce. […]
Blood samples for PK analysis were collected: 30 minutes prior to dosing and 3 hours, 6 hours, 8 hours and 24 hours postdose. […] Plasma secnidazole concentrations were determined by Celerion, Inc., using validated analytical procedures. […]

[3] = Thorough QT (TQT) study: secnidazole pharmacokinetics by gender; format: in vivo, human
Method: A TQT study was also conducted. […] A total of 50 subjects (29 males and 21 females) were included in the PK population. Noncompartmental PK parameters for these subjects are summarized by gender in Table 15 below.

[4] = Phase 3 study: treatment-emergent adverse events (safety population); format: in vivo, human; conditions: 2 grams, safety population (N = 74), TEAEs in primary phase
Method: Safety analyses, including the evaluation of adverse events, physical examinations, pelvic examinations, collection of vital signs (blood pressure, temperature, and pulse), and clinical laboratory assessments (serum chemistry, hematology, and urinalysis) was conducted at all study visits. Adverse event information was also collected on the phone call between study V2 and V3.

[5] = system: clinical isolates of T. vaginalis; experiment: Susceptibility testing, minimal lethal concentration (MLC), aerobic; format: cell-based, Trichomonas vaginalis; conditions: for MLC, mean (±SD) among all isolates / MLC, median: aerobic, 46-50 h
Method: Susceptibility testing was conducted with one hundred (100) clinical isolates of T. vaginalis.
Archived, de-identified, clinical isolates of T. vaginalis that were banked in liquid nitrogen were used for this study. The samples had been collected between July 2015 and June 2017, in accordance with institutional review board guidelines, and all patients had consented to the storage and use of their samples for subsequent testing. […] In brief, trichomonads were grown in Diamond's medium 1025 (containing trypticase soy broth, yeast extract, maltose, and calf serum) adjusted to pH 5.9 and supplemented with streptomycin at 1 g/liter and penicillin G at 100 U/ml. A hemocytometer was used to count the trichomonad population and to adjust it to a concentration of 66,666 cells/ml. Isolates were tested in microtiter plates under aerobic conditions. […] Plates were then incubated at 37° C. for 46 hours to 50 hours and read with a Zeiss Axiovert inverted microscope. The concentration of drug in the microplate wells in which no motile trichomonads were observed was reported as the MLC. […] Low-level resistance was defined as an aerobic MLC of 50 μg/ml to 100 μg/ml, moderate-level resistance as an aerobic MLC of 200 μg/ml, and high-level resistance as an aerobic MLC of >400 μg/ml. The MLCs for metronidazole and secnidazole were analyzed using the Wilcoxon signed-rank test to evaluate the differences between treatments.
Each well of a 96-well plate was filled with 150 μL of T. vaginalis suspension in Diamond's growth media (10^4 trichomonads). […] Cultures were visually assessed for survival, defined by observation of motility, through a 100× inverted microscope.

[6] = men, published studies; cited from earlier work
[7] = 100 clinical T. vaginalis isolates
[8] = 100 clinical T. vaginalis isolates, listed as secnidazole

COc1c(N2C[C@@H]3CCCN[C@@H]3C2)c(F)cc2c(=O)c(C(=O)O)cn(C3CC3)c12 [Moxifloxacin]
Overall incidence rate of TEAEs [1]: 4.3%

Cc1ncc([N+](=O)[O-])n1CC(C)O (stereo not drawn) [Secnidazole, 1-(2-hydroxypropyl)-2-methyl-5-nitromidazole]
Plasma concentrations and exposures in males versus females ([2]; 4 and 6 grams): slightly lower | Variability in plasma concentrations ([2]; across the limited sampling times, 4 and 6 grams): 4% to 29% | Dose proportionality of plasma concentrations ([2]; from 4 grams to 6 grams of secnidazole): essentially dose-proportional | Plasma concentrations and exposures in males versus females ([3]; 2 and 6 grams): slightly lower | Secnidazole exposure over the 24-hour sampling period, fold lower in male vs female subjects ([3]; Phase I study concentration-by-time data or TQT study mean PK parameters): approximately 1.5 fold | Variability in plasma concentrations ([3]; across the sampling times, 2 and 6 grams): 21% to 57% | Dose proportionality of plasma concentrations ([3]; from 2 grams to 6 grams of secnidazole): essentially dose-proportional | Time postdose up to which concentrations greater than the median MLC are maintained ([3]; men): at least 96 hours | Abdominal pain: Events n [4]: 1 | Abdominal pain: Patients n (%) [4]: 1 (1.4%) | Any Adverse Event, Overall: Events n [4]: 13 | Any Adverse Event, Overall: Patients n (%) [4]: 11 (14.9%) | Back pain: Events n [4]: 0 | Back pain: Patients n (%) [4]: 0% | Diarrhea: Events n [4]: 1 | Diarrhea: Patients n (%) [4]: 1 (1.4%) | Dysmenorrhoea: Events n [4]: 0 | Dysmenorrhoea: Patients n (%) [4]: 0% | Gastrointestinal disorders, Overall: Events n [4]: 5 | Gastrointestinal disorders, Overall: Patients n (%) [4]: 4 (5.4%) | General disorders and administration site conditions, Overall: Events n [4]: 0 | General disorders and administration site conditions, Overall: Patients n (%) [4]: 0% | Headache: Events n [4]: 1 | Headache: Patients n (%) [4]: 1 (1.4%) | Infections and infestations, Overall: Events n [4]: 3 | Infections and infestations, Overall: Patients n (%) [4]: 3 (4.1%) | Menstruation irregular: Events n [4]: 0 | Menstruation irregular: Patients n (%) [4]: 0% | Musculoskeletal and connective tissue disorders, Overall: Events n [4]: 1 | Musculoskeletal and connective tissue disorders, Overall: Patients n (%) [4]: 1 (1.4%) | Myalgia: Events n [4]: 1 | Myalgia: Patients n (%) [4]: 1 (1.4%) | Nausea: Events n [4]: 2 | Nausea: Patients n (%) [4]: 2 (2.7%) | Nervous system disorders, Overall: Events n [4]: 1 | Nervous system disorders, Overall: Patients n (%) [4]: 1 (1.4%) | Productive cough: Events n [4]: 1 | Productive cough: Patients n (%) [4]: 1 (1.4%) | Pruritus: Events n [4]: 0 | Pruritus: Patients n (%) [4]: 0% | Reproductive system and breast disorders, Overall: Events n [4]: 1 | Reproductive system and breast disorders, Overall: Patients n (%) [4]: 1 (1.4%) | Respiratory, thoracic and mediastinal disorders, Overall: Events n [4]: 2 | Respiratory, thoracic and mediastinal disorders, Overall: Patients n (%) [4]: 2 (2.7%) | Skin and subcutaneous tissue disorders, Overall: Events n [4]: 0 | Skin and subcutaneous tissue disorders, Overall: Patients n (%) [4]: 0% | Thirst: Events n [4]: 0 | Thirst: Patients n (%) [4]: 0% | Trichomoniasis (adverse event): Events n [4]: 0 | Trichomoniasis (adverse event): Patients n (%) [4]: 0% | Upper-airway cough syndrome: Events n [4]: 1 | Upper-airway cough syndrome: Patients n (%) [4]: 1 (1.4%) | Vomiting: Events n [4]: 1 | Vomiting: Patients n (%) [4]: 1 (1.4%) | Vulvovaginal candidiasis: Events n [4]: 2 | Vulvovaginal candidiasis: Patients n (%) [4]: 2 (2.7%) | Vulvovaginal mycotic infection: Events n [4]: 1 | Vulvovaginal mycotic infection: Patients n (%) [4]: 1 (1.4%) | Vulvovaginal pruritus: Events n [4]: 1 | Vulvovaginal pruritus: Patients n (%) [4]: 1 (1.4%) | In vitro efficacy in comparison with metronidazole [5, 7]: superior efficacy in vitro | Isolates demonstrating moderate- or high-level resistance [5, 7]: none of the isolates | Isolates with a lower MLC for secnidazole than for metronidazole [5, 7]: 96% | Prevalence of low-level resistance (aerobic MLC 50 μg/ml to 100 μg/ml) [5, 7]: Four | MLC, mean (±SD) among all isolates [5, 7]: Mean: 5.9 μg/mL | MLC, median [5, 7]: Median: 1.6 μg/mL | MLC, mean (±SD) among all isolates [5, 8]: 5.9 ± 13.2 µg/mL and 5.9 µg/mL | MLC, median [5, 8]: 1.6 µg/mL (≈ 8.64 µM) | Response of control isolates with established high-level resistance to metronidazole ([5]; control isolates): responded to significantly lower levels of secnidazole | MLC in the one isolate with a higher MLC for secnidazole than for metronidazole ([5]; single clinical isolate): 3.1 µg/mL | Mean dose-normalized (to 2 grams) concentrations at 96 hours [6]: approximately 2 μg/mL
